Target: T1, recombinant human thymidylate synthase (hTS) (Homo sapiens, UniProt P04818)
T1 construct: His tag (N); purchased Abcam ab95378
Assay: cell-free human thymidylate synthase (hTS) inhibition assay
Type: biochemical
Conditions: 0.84 μM hTS, 50 μM dUMP, 250 μM mTHF, DHF formation at 340 nm, room temperature, pH 7.5
Experimental: This assay measures TS-catalyzed conversion of dUMP and mTHF to dTMP and dihydrofolate (DHF), the latter of which uniquely absorbs strongly at 340 nm (Figures S1 and S2). […] Concentration–response curves were constructed by plotting the normalized reaction rates (calculated using data from the first 100 s after reaction initiation) versus log[inhibitor].
The final concentrations of hTS, dUMP, and mTHF in the reaction systems were 0.84 μM, 50 μM, and 250 μM, respectively. The reaction rates were determined by following the change in the optical absorbance at 340 nm, which corresponded to the formation of the coproduct, DHF.
Human Thymidylate Synthase Inhibition Assay
Recombinant human thymidylate synthase (hTS) was purchased from Abcam (ab95378). The protein was
His-tagged (N-terminal) and >95% pure by SDS-PAGE according to the vendor. dUMP (disodium salt)
(F3503), 5,10-methylenetetrahydrofolate (mTHF, calcium salt , folitixorin calcium ) was purchased from
Boc Sciences (B0084-007873), and all were used without further purification. The cell-free functional hTS
assay protocol was modified from literature procedures :
Inhibition assays were performed using a BioTek Synergy Neo2 plate reader equipped with a Xenon flash
lamp and a photodiode array detector. The hTS reaction was conducted at room temperature in a buffer
solution (pH 7.5) containing 50 mM Tris -HCl, 1 mM EDTA, 25 mM MgCl 2, and 5 mM HCHO. The
reaction system (175 μL total volume, 1 cm optical path lengt h) contained 50 μM dUMP (primary
substrate), 250 μM mTHF (co-substrate and enzyme cofactor), 0.84 μM hTS (enzyme), and decreasing
Formation of the co -product, dihydrofolate, was monitored at 340 nm. Reaction rates were
calculated by plotting t he absorbance at 340 nm against the reaction time and performing linear regression
analysis to determ ine the slope. The reaction rates at different inhibitor concentrations were normalized to
the reaction rate determined in the absence of inhibitor (100% enzymatic activity). Concentration-response
curves were constructed by plotting t he resulting mean % enzymatic activity values (from at least three
independent experiments) against log[inhibitor]. IC50 values were then calculated using non -linear
regression (four -parameter logistic equation, see Equation 1 below) in the GraphPad Prism v.9 software.
Equation 1: Y = Ymin + (Ymax – Ymin) / [1 + 10((logIC50 – X) × Hill Slope)]

T1 sequence (P04818 whole entry): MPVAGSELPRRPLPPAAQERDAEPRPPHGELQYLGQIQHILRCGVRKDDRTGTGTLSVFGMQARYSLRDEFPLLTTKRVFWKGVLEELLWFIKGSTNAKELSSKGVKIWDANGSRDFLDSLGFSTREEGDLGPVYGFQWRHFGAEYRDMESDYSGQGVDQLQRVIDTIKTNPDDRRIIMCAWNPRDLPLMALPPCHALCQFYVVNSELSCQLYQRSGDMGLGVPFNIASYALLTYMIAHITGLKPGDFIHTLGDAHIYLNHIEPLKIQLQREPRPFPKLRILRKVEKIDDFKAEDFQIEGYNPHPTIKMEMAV

IC50 [nM]	Compound
1240	O=c1[nH]c(=O)n([C@H]2C[C@H](O)[C@@H]([C@H](OP(=O)(O)O)C(F)(F)F)O2)cc1F [Compound 4, 5′(S)-CF3 FdUMP]
> 20000	O=c1[nH]c(=O)n([C@H]2C[C@H](O)[C@@H]([C@@H](OP(=O)(O)O)C(F)(F)F)O2)cc1F [Compound 5, 5′(R)-CF3 FdUMP]

Further lines, the compound ahead of its results:

Compound	IC50 [nM]
CC(C)(OP(=O)(O)O)[C@H]1O[C@@H](n2cc(F)c(=O)[nH]c2=O)C[C@@H]1O [Compound 3, 5′-gem-(CH3)2 FdUMP]	> 20000
C[C@H](OP(=O)(O)O)[C@H]1O[C@@H](n2cc(F)c(=O)[nH]c2=O)C[C@@H]1O [Compound 2, 5′(S)-CH3 FdUMP]	> 20000
C[C@@H](OP(=O)(O)O)[C@H]1O[C@@H](n2cc(F)c(=O)[nH]c2=O)C[C@@H]1O [Compound 1, 5′(R)-CH3 FdUMP]	1210

System: dihydropyrimidine dehydrogenase (DPD)
Assay: not given
Set-up: method as in PMID 9830621, PMID 31756363
Conditions: cited from earlier work

Compound	catabolic degradation in the liver by DPD
O=c1[nH]cc(F)c(=O)[nH]1 [5-FU, 5-Fluorouracil]	up to 85%

Reference: paper PMC10186355, “Discovery of 5′-Substituted 5-Fluoro-2′-deoxyuridine Monophosphate Analogs: A Novel Class of Thymidylate Synthase Inhibitors” (ACS Pharmacology & Translational Science, 2023)
